# Measured values: PubChem BioAssay (NCI)
#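 All cell lines were grown in 96-well plates and treated with compound for 48 hours. The concentration for 50% growth inhibition is given as GI50. TGI is the concentration that stops growth completely.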 Where a SMILES comes first, the peptide text is derived from it. The star is where a group is joined. Cbz = O=C(OCc1ccccc1)*; CH2Cl = ClC*
# Tested on: NCI-H522 lung
# Experiment: DTP human tumour cell line panel, 48 h
Compound,GI50 [µM],TGI [µM]
COc1ccc(-c2nc3ccc(-c4nc5ccc(N6CCN(c7ccccc7)CC6)cc5[nH]4)cc3[nH]2)cc1OC,1.81,4.15
O=C(N[C@@H](c1ccc(Cl)c(Cl)c1)C1CNC1)c1ccc2cnccc2c1,0.721,9.2
CO/N=C(\COc1ccc2c(c1)oc(=O)c1cc(OC)ccc12)c1ccc(OC)cc1,> 100,> 100
O=C1OCC2=C1C(c1cccc(Br)c1)c1cc3c(cc1N2CCO)CCC3 (configuration not stated),0.0148,0.521
Nc1nc(/C=C\c2ccc([N+](=O)[O-])s2)nc(N2CCCC2)n1,2.55,8.67
Clc1ccc2[nH]cc(-c3nnnn3-c3ccccc3)c2c1,18.7,> 92.5
CC(=O)OC12C=CC(=O)N1c1ccccc1C(=O)O2 (configuration not stated),–,> 100
Oc1cccnc1[Se],–,> 100
COc1cc(-c2cc(-c3cc4c([nH]c5ccccc54)c(-c4cc(OC)c(OC)c(OC)c4)n3)cc(-c3ccccc3)n2)cc(OC)c1OC,2.32,8.01
CC(C)Oc1ccc2cc(-c3nn(CC4CCNCC4)c4ncnc(N)c34)ccc2c1,11,25.4
CS(=O)(=O)CCNCc1nc(-c2ccc3ncnc(Nc4ccc(OCc5cccc(C(F)(F)F)c5)cc4)c3c2)cs1,9.13,> 25
CC(C)CC(NC(=O)OCc1ccccc1)C(=O)NC(Cc1ccccc1)C(=O)CCl (stereo not drawn) (Cbz-Leu-Phe-CH2Cl; configuration not given here),–,2.74
CCOC(=O)C(Cc1ccc(CCCC(=O)NCCC(=O)Nc2ccc3nc(C)sc3c2)cc1)C(=O)OCC,33.1,> 100
NCCNc1c2c(c(NCCN)c3[nH]ccc13)C(=O)c1ccccc1C2=O,1.9,> 100
CCOC(=O)Nc1ccc(-c2nc(-c3cccc(OCCN4CCOCC4)c3)c(-c3ccnc(Br)c3)[nH]2)cc1,3.31,> 100
COc1cc(Cn2c(-c3ccccc3)c(Cl)c3c2-c2oncc2CC3)cc(OC)c1,2.15,10.1
O=C(CC1(O)C(=O)N(Cc2ccccc2)c2ccc(F)cc21)c1ccc(C(=O)NCC2CCC3(CC2)OOC2(CCCCC2)OO3)cc1 (configuration not stated),0.187,0.396
COc1cc2c3c(n(C)c(=O)c2cc1OC)-c1cc2c(cc1/C3=C\CN)OCO2,0.835,> 43.5
CC[C@H]1[C@@H]2C=C[C@@H]3[C@H]4C/C=C\C(=O)NCCC[C@@H]5NC(=O)/C(=C(O)/C=C/[C@@H]4C[C@@H]3[C@H]2C[C@H]1C)C5=O,6.7,15.7

# Tested on: CAKI-1 renal
# Experiment: DTP human tumour cell line panel, 48 h
Compound,TGI [µM],GI50 [µM]
O=C(O)Cc1cc(Cl)ccc1O,> 100,–
O=C(c1ccccc1)c1cc2ccccc2o1,> 100,67
O=C(Nc1ccncc1)C(=O)c1cn(S(=O)(=O)c2ccc(F)cc2)c2ccccc12,10.9,2.19
COc1ccc(C(=O)/C=C/c2cc(-c3cc(OC)c(OC)c(OC)c3)n[nH]2)cc1OC,5.46,2.2
C=C(C)[C@@H]1CC[C@]2(C)[C@H](CC=C3[C@@H]4CC(C)(C)CC[C@]4(C(N)=O)CC[C@]32C)[C@@]1(C)CCC#N,> 100,3.01
COc1c(OC[C@H](O)CN2CCOCC2)ccc2c3n(c(=NC(=O)c4cccnc4C)nc12)CCN3,> 50,0.859
COc1ccc(-c2nc3ccc(-c4nc5ccc(N6CCN(c7ccccc7)CC6)cc5[nH]4)cc3[nH]2)cc1OC,8.02,2.18
O=C(N[C@@H](c1ccc(Cl)c(Cl)c1)C1CNC1)c1ccc2cnccc2c1,2.27,0.068
CO/N=C(\COc1ccc2c(c1)oc(=O)c1cc(OC)ccc12)c1ccc(OC)cc1,> 100,> 100
O=C1OCC2=C1C(c1cccc(Br)c1)c1cc3c(cc1N2CCO)CCC3 (configuration not stated),8.15,0.22
Nc1nc(/C=C\c2ccc([N+](=O)[O-])s2)nc(N2CCCC2)n1,24.6,7.1
Clc1ccc2[nH]cc(-c3nnnn3-c3ccccc3)c2c1,1.16,–
